Experimental data published in patent publication EP1992347A1 (CELLZOME AG, priority 2007, dated 2008).

Assays:
[1] = target: T1, receptor tyrosine kinase DDR1 (Homo sapiens, UniProt Q08345); assay: kinobeads competition binding assay in K562 cell lysate (iTRAQ mass spectrometry, Western blot); details: at 1 µM
T1 construct: endogenous in cells; host or cells: K562 cells / K562 cell lysate
Method: From this dataset, dose-response binding profiles were computed.
All experiments were performed in duplicate.

FAK = FAK (Homo sapiens, UniProt Q05397); details: phage display studies, Fabian et al., 2005; cited from earlier work
Chain of FAK (Q05397 whole entry, species assumed): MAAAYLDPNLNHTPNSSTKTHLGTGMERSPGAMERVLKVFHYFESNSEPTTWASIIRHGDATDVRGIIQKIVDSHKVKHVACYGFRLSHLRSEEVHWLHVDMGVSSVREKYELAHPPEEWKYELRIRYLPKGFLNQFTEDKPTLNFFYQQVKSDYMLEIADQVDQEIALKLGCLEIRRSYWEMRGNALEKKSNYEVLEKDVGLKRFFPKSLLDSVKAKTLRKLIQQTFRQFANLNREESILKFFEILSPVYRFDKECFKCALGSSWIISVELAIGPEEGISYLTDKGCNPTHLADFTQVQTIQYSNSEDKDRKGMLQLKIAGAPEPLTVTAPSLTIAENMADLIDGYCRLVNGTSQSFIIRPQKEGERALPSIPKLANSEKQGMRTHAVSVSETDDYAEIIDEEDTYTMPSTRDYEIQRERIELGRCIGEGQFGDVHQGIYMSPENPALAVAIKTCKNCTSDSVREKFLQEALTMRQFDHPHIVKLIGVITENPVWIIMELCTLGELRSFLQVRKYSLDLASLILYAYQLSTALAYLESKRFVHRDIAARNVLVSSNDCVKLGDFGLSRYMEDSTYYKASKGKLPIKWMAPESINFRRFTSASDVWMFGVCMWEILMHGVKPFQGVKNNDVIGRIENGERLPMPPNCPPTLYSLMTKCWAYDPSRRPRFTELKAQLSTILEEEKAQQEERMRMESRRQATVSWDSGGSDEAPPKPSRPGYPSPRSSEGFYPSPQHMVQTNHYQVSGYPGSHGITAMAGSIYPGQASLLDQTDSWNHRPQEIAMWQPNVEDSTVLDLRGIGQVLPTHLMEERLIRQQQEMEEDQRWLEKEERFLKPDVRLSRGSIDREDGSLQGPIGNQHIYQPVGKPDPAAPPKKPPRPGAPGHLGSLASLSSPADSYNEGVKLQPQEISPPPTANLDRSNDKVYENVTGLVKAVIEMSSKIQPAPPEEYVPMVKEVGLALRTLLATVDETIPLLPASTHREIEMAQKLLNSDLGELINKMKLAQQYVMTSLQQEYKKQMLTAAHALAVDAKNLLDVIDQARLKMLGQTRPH

T1 sequence (Q08345 19-913): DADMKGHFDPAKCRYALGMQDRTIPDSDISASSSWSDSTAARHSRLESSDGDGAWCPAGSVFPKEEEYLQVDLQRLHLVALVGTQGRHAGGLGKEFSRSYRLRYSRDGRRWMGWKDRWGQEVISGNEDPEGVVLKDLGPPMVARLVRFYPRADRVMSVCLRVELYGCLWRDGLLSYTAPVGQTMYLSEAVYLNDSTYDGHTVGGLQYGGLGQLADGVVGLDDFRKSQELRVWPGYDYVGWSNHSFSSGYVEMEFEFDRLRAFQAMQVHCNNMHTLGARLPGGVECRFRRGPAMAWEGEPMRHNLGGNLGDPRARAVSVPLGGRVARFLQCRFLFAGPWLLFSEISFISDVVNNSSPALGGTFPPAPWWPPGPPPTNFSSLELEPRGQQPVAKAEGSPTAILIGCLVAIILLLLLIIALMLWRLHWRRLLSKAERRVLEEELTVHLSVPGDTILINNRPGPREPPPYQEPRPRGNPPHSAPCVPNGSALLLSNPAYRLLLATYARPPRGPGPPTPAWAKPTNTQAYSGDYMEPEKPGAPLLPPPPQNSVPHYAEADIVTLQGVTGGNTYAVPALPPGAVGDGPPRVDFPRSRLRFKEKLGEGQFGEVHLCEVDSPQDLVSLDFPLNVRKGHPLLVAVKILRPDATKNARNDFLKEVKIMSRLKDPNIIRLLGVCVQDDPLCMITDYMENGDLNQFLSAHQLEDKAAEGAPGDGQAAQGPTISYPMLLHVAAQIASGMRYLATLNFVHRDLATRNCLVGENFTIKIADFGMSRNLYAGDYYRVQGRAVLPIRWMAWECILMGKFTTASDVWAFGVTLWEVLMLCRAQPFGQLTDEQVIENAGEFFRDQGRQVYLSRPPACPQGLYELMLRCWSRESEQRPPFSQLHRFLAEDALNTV

SMILES | competition [1] [%] | binding to FAK (FAK)
COc1cc(Nc2c(C#N)cnc3cc(OCCCN4CCN(C)CC4)c(OC)cc23)c(Cl)cc1Cl [bosutinib] | > 50 | –
Cc1ccc(NC(=O)c2ccc(CN3CCN(C)CC3)cc2)cc1Nc1nccc(-c2cccnc2)n1 [imatinib, 4-(4-methylpiperazin-1-ylmethyl)-N-[4-methyl-3-(4-pyridin-3-yl)pyrimidin-2-ylamino)phenylbenzamide] | – | no binding
